Measured values from patent US9097673B2, “Processes and kits for determining multi-drug resistance of cells” (ENZO LIFE SCIENCES, INC., priority 2010, dated 2015).

What was measured:
CHO K1 cell line = test: Dye uptake flow cytometry MDR assay; type: cell-based, hamster; settings: for D-values, Cyclosporin A / D-values, Novobiocin / D-values, Probenecid / D-values, Verapamil / MAF, Cyclosporin A / MAF, Novobiocin / MAF, Probenecid / MAF, Verapamil: Fluo-8 AM probe, dye uptake;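 as to all read-outs here: flow cytometry of dye-loaded cells, Kolmogorov-Smirnov D value (0 to 1.0) comparing fluorescence with versus without inhibitor, made negative when the uninhibited control was brighter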
Procedure: (§1) Concentrations of the modulators used in the experiments were non-toxic to the cells (based upon standard 3-(4,5-Dimethylthiazol-2-Yl)-2,5-Diphenyltetrazolium Bromide (MTT) testing, data not shown). Fluo-8™ was used in all experiments at 5 μM, and Rhod-4™—at 4 μM final concentrations.
(§2) Kolmogorov-Smirnov statistics measures the difference between two distribution functions and generates a D value ranging between 0 and 1.0, with higher values indicating a greater difference between the distribution functions. The D value generated by the KS statistics was modified by ascribing a negative value if the fluorescence of a negative control (no inhibitor) was brighter than the fluorescence of the sample with inhibitor.
(§3) Cells were grown on tissue culture dishes and on the day of assay were trypsinized and washed twice with warm (37° C.) phosphate-buffered saline (PBS). Post-wash, the cells were re-suspended in warm phenol red indicator-free medium at a density of 1×10^6/ml. For each detection set, sixteen tubes (5 samples in triplicates plus non-stained control for background fluorescence) in numbered tubes each containing 5×10^5/cells (0.5 ml) were prepared. […] After incubation for 5 min at 37° C., 0.25 ml of warm medium with Fluo-8™ AM probe (5 μM final concentration) or Rhod-4™ AM probe (2 μM final concentration) was added to each tube excluding non-stained control that receives plain medium and cells were incubated for 30 min at 37° C. and analyzed immediately by flow cytometry. In the second set of the tubes, the reaction was stopped by rapid centrifugation (1 min) at relatively low speed (200×g). After wash with ice-cold PBS and discarding the supernatant, cells were re-suspended in 0.5 ml of ice-cold medium and kept on ice until flow cytometry analysis. The third set of cells simply was spun down (1 min, 200×g) to remove the excess of the probe, resuspended in ice-cold medium and kept on ice until flow cytometry analysis.
(§4) Fluo-8™ dye fluorescence was measured in the FL1 channel, and Rhod-4™ dye fluorescence—in the FL2 channel.

A549 cell line = test: Dye uptake flow cytometry MDR assay; type: cell-based, human; settings: A549, dye uptake
Procedure: as §1, §2, §3, §4

[1] = CHO K1, dual probes Fluo-8 AM (FL1) + Pheophorbide A (FL3)
[2] = CHO K1, dye uptake, average of three independent experiments (Table 10)
[3] = CHO K1, dye uptake, average of three representative experiments (Table 6)
[4] = CHO K1, dye uptake, representative experiment (Table 8)
[5] = average of three independent experiments (Table 10)
[6] = average of three representative experiments (Table 6)
[7] = representative experiment (Table 8)

CC(=O)OCOC(=O)CN(CC(=O)OCOC(C)=O)c1ccccc1OCCOc1cc(-c2c3ccc(=O)cc-3oc3cc(OCOC(C)=O)ccc23)ccc1N(CC(=O)OCOC(C)=O)CC(=O)OCOC(C)=O [Fluo-8 ™ AM]
D-values Post Inhibitor Treatment (compared to uninhibited cells), CsA (CHO K1 cell line; [1]): 0.94
D-values Post Inhibitor Treatment (compared to uninhibited cells), FTC (CHO K1 cell line; [1]): 0.56
D-values Post Inhibitor Treatment (compared to uninhibited cells), MK-571 (CHO K1 cell line; [1]): 0.98
D-values Post Inhibitor Treatment (compared to uninhibited cells), Verapamil (CHO K1 cell line; [1]): 0.9
D-value, Cyclosporine A (CHO K1 cell line; [2]): 0.89
D-value, FTC (CHO K1 cell line; [2]): 0.28
D-value, MK-571 (CHO K1 cell line; [2]): 0.95
D-value, Novobiocin (CHO K1 cell line; [2]): 0.68
D-value, Verapamil (CHO K1 cell line; [2]): 0.74
D-value, Fumitremorgan C (CHO K1 cell line; [3]): 0.48
D-value, Probenecid (CHO K1 cell line; [3]): 0.69
D-value, Verapamil (CHO K1 cell line; [3]): 0.84
D-value, Cyclosporine A (CHO K1 cell line; [4]): 0.96
D-value, Novobiocin (CHO K1 cell line; [4]): 0.78
D-value, Probenecid (CHO K1 cell line; [4]): 0.89
D-value, Verapamil (CHO K1 cell line; [4]): 0.83
D-values, Cyclosporin A (CHO K1 cell line; No Wash): 0.97
D-values, Novobiocin (CHO K1 cell line; No Wash): 0.98
D-values, Probenecid (CHO K1 cell line; No Wash): 0.9
D-values, Verapamil (CHO K1 cell line; No Wash): 0.81
MAF, Cyclosporin A (CHO K1 cell line; No Wash): 93.0
MAF, Novobiocin (CHO K1 cell line; No Wash): 93.5
MAF, Probenecid (CHO K1 cell line; No Wash): 85.4
MAF, Verapamil (CHO K1 cell line; No Wash): 77.6
D-values, Cyclosporin A (CHO K1 cell line; Spin): 0.94
D-values, Novobiocin (CHO K1 cell line; Spin): 0.97
D-values, Probenecid (CHO K1 cell line; Spin): 0.9
D-values, Verapamil (CHO K1 cell line; Spin): 0.76
MAF, Cyclosporin A (CHO K1 cell line; Spin): 91.5
MAF, Novobiocin (CHO K1 cell line; Spin): 92.4
MAF, Probenecid (CHO K1 cell line; Spin): 85.0
MAF, Verapamil (CHO K1 cell line; Spin): 73.0
D-values, Cyclosporin A (CHO K1 cell line; Wash): 0.94
D-values, Novobiocin (CHO K1 cell line; Wash): 0.94
D-values, Probenecid (CHO K1 cell line; Wash): 0.87
D-values, Verapamil (CHO K1 cell line; Wash): 0.76
MAF, Cyclosporin A (CHO K1 cell line; Wash): 91.6
MAF, Novobiocin (CHO K1 cell line; Wash): 91.3
MAF, Probenecid (CHO K1 cell line; Wash): 86.2
MAF, Verapamil (CHO K1 cell line; Wash): 73.5
D-value, Cyclosporine A (A549 cell line; [5]): 0.43
D-value, FTC (A549 cell line; [5]): 0.31
D-value, MK-571 (A549 cell line; [5]): 0.61
D-value, Novobiocin (A549 cell line; [5]): 0.37
D-value, Verapamil (A549 cell line; [5]): 0.06
D-value, Fumitremorgan C (A549 cell line; [6]): 0.23
D-value, Probenecid (A549 cell line; [6]): 0.26
D-value, Verapamil (A549 cell line; [6]): 0.07
D-value, Cyclosporine A (A549 cell line; [7]): 0.51
D-value, Novobiocin (A549 cell line; [7]): 0.44
D-value, Probenecid (A549 cell line; [7]): 0.49
D-value, Verapamil (A549 cell line; [7]): 0.09
